Assay results from patent publication US6410320B1, “Method and compositions for isolation and growth of kidney tubule stem cells, in vitro kidney tubulogenesis and ex vivo construction of renal tubules” (The University of Michigan, priority 1992, dated 2002).

Test system: renal proximal tubule cells
Test: Phenotypic transformation / lumen formation (tubulogenesis) in a confluent monolayer, by light and electron microscopy
Type: cell-based, rabbit
Details: density-arrested confluent monolayer; where present TGF-β1 10 ng/ml, EGF 1 nM, RA 0.1 μM; 144 hours in Example 1
Protocol: Rabbit renal proximal tubule cells were grown in primary culture by techniques reported by Humes et al. in Lab. Invest. 64:538-45 (1991). The cells were grown in 35 mm Corning culture dishes with serum-free, hormonally defined Dulbecco's Modified Eagle Hams F-12 media (1:1, v/v) containing L-glutamine, penicillin, streptomycin, 50 nM hydrocortisone, 5 μg/ml of insulin, and 5 μg/ml of transferrin. The cultures were maintained in a humidified 5% CO2/95% air incubator at 37° C. Medium was changed every 3 to 5 days, depending on nutrient requirements based upon cell number. Cultures became confluent in 9 to 12 days. Once confluent, various agents as described below were added in 20 μl aliquots at various times to promote changes in morphologic phenotype or pattern formation.
Specimens for ultrastructural analysis were fixed with 2% glutaraldehyde in Sorenson's buffer (pH 7.2, 310 mOsm). Postfixation occurred in 1% OsO4 followed by dehydration in ethanol. Specimens were transferred through propylene oxide into monomer mixture (poly/Bed 812A, Araldite, DDSA and DMP-30) and polymerized at 60° C. Thin sections were stained with uranyl acetate and lead citrate, and examined in a Zeiss 9-S2 transmission electron microscope.
Of note, in each aggregation of cells one or two lumen structures were usually observed in random sectioning of tissue culture preparations. […]

Molecule | morphologic phenotype of the monolayer / lumen formation
CC1=C(/C=C/C(C)=C/C=C/C(C)=C/C(=O)O)C(C)(C)CCC1 [RA, all-trans retinoic acid] | no dramatic effect on the appearance of the monolayer
TGF-β1: transforming growth factor-β1 (porcine platelets) from R & D Systems | no lumen formation was observed
